This is an account of results in patent US20240043860A1, “NOVEL HYDROXYPHENYLPYRUVATE DIOXYGENASE POLYPEPTIDES AND METHODS OF USE THEREOF” (Syngenta Crop Protection AG, priority 2020, published 2024).

Each structure is given as a SMILES string. Where “and” joins values, the source holds several entries; their conditions need not be identical. Equal entries are not always repeated.

Experiment [1] deals with transgenic tobacco plants expressing mutant HPPD SEQ ID NO: 124. The experiment is described as follows: spray test, herbicidal damage scoring. Type of experiment: in vivo. The conditions noted are these: Table 4.2, 7 days after treatment, 100=complete death, 0=no damage, one value per event. Here is the method:
(§1) DNA sequences that encode these polypeptides (optimized for tobacco or, optionally, codon optimized according to a target crop such as soybean) were prepared synthetically. Each sequence was designed to include a 5′ fusion with TMV omega 5′ leader sequence such that they are flanked at the 5′ end with XhoI and at the 3′ end with KpnI to facilitate direct cloning into a suitable binary vector for Agrobacterium-based plant transformation.
(§2) For example, a master plate of Agrobacterium tumefaciens containing the HPPD expressing the binary vector is used to inoculate 10 ml LB (L broth) containing 100 mg/l Rifampicin plus 50 mg/l Kanamycin using a single bacterial colony. This is incubated overnight at 28° C. shaking at 200 rpm. This entire overnight culture is used to inoculate a 50 ml volume of LB containing the same antibiotics. Again this is cultured overnight at 28° C. shaking at 200 rpm. The Agrobacterium cells are pelleted by centrifuging at 3000 rpm for 15 minutes and then resuspended in MS (Murashige and Skoog) medium containing 30 g/l sucrose, pH 5.9 to an OD […]=0.6. This suspension is dispensed in 25 ml aliquots into petri dishes.
(§3) Once rooted, plantlets are transferred from agar and potted into 50% peat, 50% John Innes Soil No. 3 or, for example, MetroMix® 380 soil (Sun Gro Horticulture, Bellevue, WA) with slow-release fertilizer in 3 inch round or 4 inch square pots and left regularly watered to establish for 8-12d in the glass house. Glass house conditions are about 24-27° C. day; 18-21° C. night and approximately a 14h (or longer in UK summer) photoperiod.
(§4) About 20-30 TO events are produced for a number of HPPD variant genes.
(§5) Single copy events amongst the Ti plant lines are identified by their 3:1 segregation ratio (with respect to kanamycin and/or herbicide) and by quantitative RT-PCR. Seed from the thus selected Ti tobacco (var. Samsun) lines are sown in 3 inch diameter pots containing 50% peat and 50% John Innes Soil No. 3. […] HPPD expression levels were monitored by Western analysis.
(§6) Tables 4.1-4.9 show the herbicidal damage scoring on transgenic tobacco plants 7 days after treatment. A score of 100=complete death and 0=no damage observed.

The subject of experiment [2] is transgenic tobacco plants expressing mutant HPPD SEQ ID NO: 125. The experiment is described as follows: spray test, herbicidal damage scoring. Type of experiment: in vivo. The conditions noted are these: Table 4.3, 7 days after treatment, 100=complete death, 0=no damage, one value per event. Here is the method: as §1, §2, §3, §4, §5, §6
The test system is the same in experiment [3]. The experiment is described as follows: spray test, herbicidal damage scoring. Type of experiment: in vivo.
Experiment [4] concerns the target HPPD variant AVESA V200 (SEQ ID NO: 5) (Avena sativa, UniProt A0ACD5V6K6, A327R/I340E/L359M/V218I/V260A). The experiment is described as follows: biochemical. Here is the method: 25 ul of the overnight cultures were inoculated into fresh 96-deepwell block containing 1 ml Formedium Autoinduction Media (AIM). The AIM cultures were grown for 3h at 37° C. (900rpm) and then transferred to 20° C. overnight (900rpm) to allow protein expression. The overnight cultures were centrifuged and 500 ul of Cellytic B (Sigma Aldrich) was added to resuspend the cell pellets. The coupled HGO assay (Siehl et al, 2014) is used to generate IC50 values for the HPPD variants of interest.
E. coli BL21 (DE3) cells were transformed with a pET24a vector containing a C-terminally his-tagged Arabidopsis HGO gene, grown and induced overnight as described for the HPPD variants above. […]
The coupled HGO assay is carried out by adding 10 ul of HPPD extract to a 96-well plate and then adding 40 ul of reaction buffer (50 mM Bis Tris Propane, pH7.0, 25 mM sodium-L-ascorbate, 400μM mercaptoethanol, 50 μM Fe(II)SO4). […] 200 ul of HPP/HGO (197 μM hydroxyphenylpyruvic acid, 16 μl/ml Homogentisic Acid Oxidase in reaction buffer as described above) buffer is then added to the well and the reaction is regularly monitored (e.g. every 30 seconds-5 minutes) for absorbance at 330 nm for a given time period (e.g., for between 15-60 minutes). […]

Experiment [5] relates to HPPD variant ALOME V209 (SEQ ID NO: 19). Briefly: coupled HGO assay. Type of experiment: biochemical, Alopecurus myosuroides. Here is the method:
(§7) DNA sequences (SEQ ID NOs: 65-118, 128, 130, 131, and 133), synthesized for expression in E. coli, by GeneWiz (USA) to encode HPPD variants (SEQ ID NOs: 5-58, 122, 124, 125 and 127) derived from either Avena sativa (SEQ ID NOs: 122, 124), Alopecurus myosuroides (SEQ ID NO: 126) or Apera spica-venti (SEQ ID NOs: 123, 125) were transformed into E coli BL21 (DE3) (New England Biolabs) and grown in 0.5 ml Terrific broth +50 ug/ml Kanamycin media in a 96-deepwell block overnight (37° C., 900rpm). 25 ul of the overnight cultures were inoculated into fresh 96-deepwell block containing 1 ml Formedium Autoinduction Media (AIM). The AIM cultures were grown for 3h at 37° C. (900rpm) and then transferred to 20° C. overnight (900rpm) to allow protein expression. The overnight cultures were centrifuged and 500 ul of Cellytic B (Sigma Aldrich) was added to resuspend the cell pellets. The coupled HGO assay (Siehl et al, 2014) is used to generate IC50 values for the HPPD variants of interest.
(§8) E. coli BL21 (DE3) cells were transformed with a pET24a vector containing a C-terminally his-tagged Arabidopsis HGO gene, grown and induced overnight as described for the HPPD variants above. The cell pellet was resuspended in phosphate buffered saline at pH 7.4 containing 10% Glycerol, 1mm Tris[2-carboxyethyl] phosphine-HCl (TCEP) plus 30 mM Imidazole and lysed using lysozyme/benzonase. The extract was clarified by low speed centrifugation and purified in the same buffer down a 1 ml His Gravitrap column. The bound HGO was eluted in 0.25M imidazole and the fractions pooled and beaded into liquid nitrogen. All procedures apart from the centrifugation and beading steps were carried out under a nitrogen atmosphere.
(§9) The coupled HGO assay is carried out by adding 10 ul of HPPD extract to a 96-well plate and then adding 40 ul of reaction buffer (50 mM Bis Tris Propane, pH7.0, 25 mM sodium-L-ascorbate, 400μM mercaptoethanol, 50 μM Fe(II)SO4). The plates are left to incubate for 5 minutes on ice. […] 200 ul of HPP/HGO (197 μM hydroxyphenylpyruvic acid, 16 μl/ml Homogentisic Acid Oxidase in reaction buffer as described above) buffer is then added to the well and the reaction is regularly monitored (e.g. every 30 seconds-5 minutes) for absorbance at 330 nm for a given time period (e.g., for between 15-60 minutes). The data can then be used to calculate the IC50 value for each HPPD variant of interest.

Experiment [6] deals with HPPD variant ALOME V200 (SEQ ID NO: 7). Briefly: coupled HGO assay. Type of experiment: biochemical, Alopecurus myosuroides. Here is the method: as §7, §8, §9

Sequence of HPPD variant AVESA V200 (SEQ ID NO: 5) (A0ACD5V6K6 entry or part of it V218I/V260A/A327R/I340E/L359M): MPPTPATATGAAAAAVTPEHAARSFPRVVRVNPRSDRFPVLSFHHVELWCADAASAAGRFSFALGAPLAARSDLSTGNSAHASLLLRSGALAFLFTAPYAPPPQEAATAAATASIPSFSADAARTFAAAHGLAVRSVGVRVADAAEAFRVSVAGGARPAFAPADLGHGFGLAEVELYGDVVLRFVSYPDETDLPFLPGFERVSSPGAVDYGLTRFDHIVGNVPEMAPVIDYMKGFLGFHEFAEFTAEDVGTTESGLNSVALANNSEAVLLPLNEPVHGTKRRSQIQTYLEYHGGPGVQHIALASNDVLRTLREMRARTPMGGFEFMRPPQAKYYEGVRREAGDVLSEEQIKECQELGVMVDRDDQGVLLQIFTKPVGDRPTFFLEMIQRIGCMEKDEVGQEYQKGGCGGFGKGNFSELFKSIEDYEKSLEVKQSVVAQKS

On to `COc1ccc(-n2nc(C)cc(C(=O)C3C(=O)CCCC3=O)c2=O)cc1OC` [Herbicide C, dioxopyritrione], for which the “herbicidal damage scoring, Herbicide C (200 g/ha)” value in experiment [1] is 60 and 65 and 50; in experiment [2] it was 60 and 80 and 75 and 85; in experiment [3] (Table 3.4, 14 days after treatment, SEQ ID 125, 100=complete death, 0=no damage, one value per event) it was 60 and 80 and 75 and 85. Besides, the tolerance result in experiment [3] (SEQ ID 125 plants, 100 g/ha (Table 3.4)) is “display tolerance”.

One may read the IC50 as the concentration at which inhibition is half-maximal. Low readings indicate greater potency in that assay, high ones weaker potency in that assay. On to `Cn1nnnc1NC(=O)c1ccc(C(F)(F)F)nc1-n1cncn1` [Herbicide D, N-(1-methyltetrazol-5-yl)-2-(1,2,4-triazol-1-yl)-6-(trifluoromethyl)pyridine-3-carboxamide], for which the IC50 in experiment [4] is 63.2 µM; in experiment [5], 96.9 µM; in experiment [6], 77.8 µM.
